In ChEMBL document CHEMBL3603813, “Quinoline-based antimalarial hybrid compounds” (Bioorg Med Chem, 2015):

Experiments:
Plasmodium berghei [1] = assay: Antimalarial activity against Plasmodium berghei infected in mouse assessed as reduction in parasitemia at 44 to 46 mg/kg, po; format: functional
Plasmodium falciparum [2] = assay: Antiplasmodial activity against CQ-resistant Plasmodium falciparum FCR3; format: functional, organism-based
Plasmodium berghei [3] = assay: Antimalarial activity against Plasmodium berghei infected in mouse assessed as inhibition of parasite multiplication at 5 mg/kg/day administered for 4 days measured after 7 days; format: functional
Plasmodium falciparum [4] = assay: Antiplasmodial activity against CQ-resistant Plasmodium falciparum FcB1; format: functional
Plasmodium falciparum [5] = assay: Antiplasmodial activity against CQ-resistant Plasmodium falciparum FcM29; format: functional
Plasmodium falciparum [6] = assay: Antiplasmodial activity against CQ-resistant Plasmodium falciparum Dd2; format: functional, organism-based
[7] = Inhibition of beta-hematin formation; format: physicochemical
Plasmodium falciparum [8] = assay: Antiplasmodial activity against CQ-sensitive Plasmodium falciparum D6; format: functional

## Clc1ccc2c(NCCN3CCC(NC(c4ccccn4)c4ccccn4)CC3)ccnc2c1
Plasmodium berghei [1]
  inhibition (INH): >99.9%

## CCCS(=O)(=O)N1CCN(c2ccnc3cc(Cl)ccc23)CC1
Plasmodium falciparum [2]
  IC50: 1200 nM

## O=C(CS(=O)(=O)N1CCN(c2ccnc3cc(Cl)ccc23)CC1)Nc1ccccc1
Plasmodium falciparum [2]
  IC50: 1200 nM

## Clc1ccc2c(Sc3ncnc4[nH]cnc34)ccnc2c1
Plasmodium berghei [3]
  inhibition in vivo at 5 mg/kg/day: 70%

## C[C@@H]1CC[C@H]2[C@@H](C)C(=O)O[C@@H]3O[C@@]4(C)CC[C@@H]1[C@]32OO4 [ARTEMISININ]
Plasmodium falciparum [4]
  Activity: 10 nM
Plasmodium falciparum [5]
  Activity: 18 nM

## CCN(CC)CCCC(C)Nc1ccnc2cc(Cl)ccc12 (configuration not stated) [CHLOROQUINE]
Plasmodium falciparum [4]
  Activity: 145 nM
Plasmodium falciparum [6]
  Activity: 102 nM
[7]
  inhibition (INH): 94%
Plasmodium falciparum [8]
  Activity: 7 nM
Plasmodium falciparum [5]
  Activity: 735 nM

## Clc1ccc2c(NCCCN3CCC(NC(c4ccccn4)c4ccccn4)CC3)ccnc2c1 [DM-1157]
Plasmodium berghei [1]
  inhibition (INH): >99.9%
